For this test, the system named is L1210 leukemia ip in BDF1 mice, survival T/C. The test is described as follows: NCI In Vivo Anticancer Drug Screen. Data for tumor model L1210 Leukemia (intraperitoneal) in B6D2F1 (BDF1) mice. To be noted: endpoint: mean survival time, higher = longer survival. Put shortly: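 Tumor cells were implanted, animals were treated, and survival was followed. The result divides the treated measurement by the vehicle-control measurement.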

The mark [1] stands for this setting: dose: 100.0 mg/kg/injection, schedule: Q01DX009 (ip), vehicle: Klucel (hydroxypropylcellulose) (HPC).
Setting [2] is: dose: 200.0 mg/kg/injection, schedule: Q01DX009 (ip), vehicle: Klucel (hydroxypropylcellulose) (HPC).
Where [3] appears, read: dose: 400.0 mg/kg/injection, schedule: Q01DX009 (ip), vehicle: Klucel (hydroxypropylcellulose) (HPC).
[4] abbreviates: dose: 100.0 mg/kg/injection, schedule: Q01DX009 (ip), vehicle: saline.
The mark [5] stands for this setting: dose: 100.0 mg/kg/injection, schedule: Q01DX009 (ip), vehicle: saline with Tween-80.
[6] abbreviates: dose: 200.0 mg/kg/injection, schedule: Q01DX009 (ip), vehicle: saline with Tween-80.
Where [7] appears, read: dose: 400.0 mg/kg/injection, schedule: Q01DX009 (ip), vehicle: saline with Tween-80.
Where [8] appears, read: dose: 100.0 mg/kg/injection, schedule: Q04DX002 (ip), vehicle: saline.

The results in this text go back to PubChem BioAssay AID248 (DTP/NCI, 2004).

Structures are written as SMILES. “And” between values parts separate entries of the source, which are not always exact repeats. Equal values may be shown once. Inconclusive results and toxic doses are left out.

As to `COc1ccc(OC)c(NC(=O)Nc2c(C)n(C)n(-c3ccccc3)c2=O)c1`, the T/C runs as follows: under setting [1], 93 % of control; (dose: 100.0 mg/kg/injection, schedule: Q04DX003 (ip), vehicle: Klucel (hydroxypropylcellulose) (HPC)) 98 % of control; under setting [2], 93 % of control; (dose: 200.0 mg/kg/injection, schedule: Q04DX003 (ip), vehicle: Klucel (hydroxypropylcellulose) (HPC)) 93 % of control; under setting [3], 101 % of control; (dose: 400.0 mg/kg/injection, schedule: Q04DX003 (ip), vehicle: Klucel (hydroxypropylcellulose) (HPC)) 90 % of control.
For the molecule `CCOC(=O)CNC(=O)C1OC(n2cnc3c(N)ncnc32)C(O)C1O` (stereo not drawn), the T/C runs as follows: (dose: 6.25 mg/kg/injection, schedule: Q01DX009 (ip), vehicle: saline) 105 % of control; (dose: 12.5 mg/kg/injection, schedule: Q01DX005 (ip), vehicle: saline) 102 % of control; (dose: 12.5 mg/kg/injection, schedule: Q01DX009 (ip), vehicle: saline) 110 % of control; (dose: 25.0 mg/kg/injection, schedule: Q01DX005 (ip), vehicle: saline) 114 % of control.
Take `CC(C)(C)C1CCC(O)C(Cl)C1` (stereo not drawn): the T/C is 100 % of control under setting [4] and 98 % of control (dose: 200.0 mg/kg/injection, schedule: Q01DX009 (ip), vehicle: saline).
Consider `COC(=O)/C=C(/Nc1cc(Cl)cc(Cl)c1)C(=O)OC`, for which the T/C (dose: 100.0 mg/kg/injection, schedule: Q01DX001 (ip), vehicle: saline) is 95 % of control; the T/C (dose: 100.0 mg/kg/injection, schedule: Q04DX003 (ip), vehicle: other) was 86 % of control; the T/C (dose: 200.0 mg/kg/injection, schedule: Q01DX001 (ip), vehicle: saline) is 98 % of control; the T/C (dose: 400.0 mg/kg/injection, schedule: Q01DX001 (ip), vehicle: saline) was 90 % of control; the T/C (dose: 400.0 mg/kg/injection, schedule: Q04DX003 (ip), vehicle: other) is 104 % of control.
Regarding `NS(=O)(=O)c1ccc(NC(=S)NC(=O)c2ccc(Cl)cc2Cl)cc1`, the T/C is 89 % of control and 90 % of control under setting [5]; 101 % of control and 92 % of control (dose: 100.0 mg/kg/injection, schedule: Q04DX002 (ip), vehicle: saline with Tween-80); 96 % of control and 89 % of control under setting [6]; 97 % of control and 90 % of control (dose: 200.0 mg/kg/injection, schedule: Q04DX002 (ip), vehicle: saline with Tween-80); 93 % of control and 89 % of control under setting [7]; 86 % of control and 92 % of control (dose: 400.0 mg/kg/injection, schedule: Q04DX002 (ip), vehicle: saline with Tween-80).
For `CNCCCNCC1C(c2ccccc2)C1c1ccccc1` (stereo not drawn), the T/C is 100 % of control and 90 % of control (dose: 25.0 mg/kg/injection, schedule: Q04DX002 (ip), vehicle: saline); 103 % of control (dose: 50.0 mg/kg/injection, schedule: Q04DX002 (ip), vehicle: saline); 86 % of control and 97 % of control under setting [8].
Turning to `CC1(CBr)Oc2ccccc2O1`, the T/C was 115 % of control under setting [1], 97 % of control under setting [2] and 101 % of control under setting [3].
For `CN(CCOS(C)(=O)=O)CCOS(C)(=O)=O`, the T/C by setting is: (dose: 0.1 mg/kg/injection, schedule: Q01DX009 (ip), vehicle: saline) 123 % of control; (dose: 0.17 mg/kg/injection, schedule: Q01DX009 (ip), vehicle: saline) 118 % of control; (dose: 0.2 mg/kg/injection, schedule: Q01DX009 (ip), vehicle: saline) 161 % of control; (dose: 0.26 mg/kg/injection, schedule: Q01DX009 (ip), vehicle: saline) 122 % of control; (dose: 0.28 mg/kg/injection, schedule: Q01DX001 (ip), vehicle: saline) 110 % of control; (dose: 0.4 mg/kg/injection, schedule: Q01DX001 (ip), vehicle: saline) 115 % of control. Besides, the T/C runs as follows: (dose: 0.4 mg/kg/injection, schedule: Q01DX009 (ip), vehicle: saline) 183 % of control; (dose: 0.44 mg/kg/injection, schedule: Q01DX001 (ip), vehicle: saline) 121 % of control; (dose: 0.66 mg/kg/injection, schedule: Q01DX009 (ip), vehicle: saline) 101 % of control; (dose: 0.8 mg/kg/injection, schedule: Q01DX009 (ip), vehicle: saline) 163 % of control; (dose: 1.0 mg/kg/injection, schedule: Q01DX009 (ip), vehicle: saline) 109 % of control; (dose: 1.5 mg/kg/injection, schedule: Q01DX009 (ip), vehicle: saline) 88 % of control. Further, the T/C is 92 % of control (dose: 1.6 mg/kg/injection, schedule: Q01DX009 (ip), vehicle: saline); 156 % of control (dose: 2.25 mg/kg/injection, schedule: Q01DX001 (ip), vehicle: saline); 104 % of control (dose: 4.5 mg/kg/injection, schedule: Q01DX001 (ip), vehicle: saline); 113 % of control (dose: 38.0 micrograms/kg/injection, schedule: Q01DX009 (ip), vehicle: saline); 123 % of control (dose: 58.0 micrograms/kg/injection, schedule: Q01DX009 (ip), vehicle: saline); 115 % of control (dose: 88.0 micrograms/kg/injection, schedule: Q01DX009 (ip), vehicle: saline). Also, the T/C is 151 % of control (dose: 132.0 micrograms/kg/injection, schedule: Q01DX009 (ip), vehicle: saline) and 90 % of control (dose: 200.0 micrograms/kg/injection, schedule: Q01DX009 (ip), vehicle: saline).
Turning to `N#CCCc1c(O)ccc2ccccc12`, the T/C is, setting by setting: under setting [5], 105 % of control; under setting [6], 102 % of control; under setting [7], 105 % of control.
On to `O=C([O-])CO.[Co+3].[NH2-].[NH2-].[NH2-].[NH2-].[NH2-].[O-][Cl+3]([O-])([O-])O`, for which the T/C under setting [8] is 103 % of control; the T/C (dose: 200.0 mg/kg/injection, schedule: Q04DX002 (ip), vehicle: saline) is 100 % of control; the T/C (dose: 400.0 mg/kg/injection, schedule: Q04DX002 (ip), vehicle: saline) is 103 % of control.
With `NC(N)=N/N=C\c1ccc2ccccc2c1`, the T/C reads like this: (dose: 100.0 mg/kg/injection, schedule: Q04DX003 (ip), vehicle: saline with Tween-80) 100 % of control; (dose: 400.0 mg/kg/injection, schedule: Q04DX003 (ip), vehicle: saline with Tween-80) 88 % of control.
As for `CC1=C(C(=O)O)C(C)CC(=O)N1c1ccccc1` (stereo not drawn), the T/C is, setting by setting: (dose: 50.0 mg/kg/injection, schedule: Q01DX001 (ip), vehicle: carboxymethylcellulose (CMC)) 102 % of control; (dose: 100.0 mg/kg/injection, schedule: Q01DX001 (ip), vehicle: carboxymethylcellulose (CMC)) 96 % of control; (dose: 200.0 mg/kg/injection, schedule: Q01DX001 (ip), vehicle: carboxymethylcellulose (CMC)) 93 % of control; (dose: 400.0 mg/kg/injection, schedule: Q01DX001 (ip), vehicle: carboxymethylcellulose (CMC)) 96 % of control.
`COc1ccc(C(=O)Nc2ccccc2)cc1NC(=O)NC(C)=O`: the T/C reads like this: under setting [1], 97 % of control; under setting [2], 106 % of control; under setting [3], 100 % of control.
Take `COC(=O)c1ccc([N+](=O)[O-])o1`: the T/C is 104 % of control (dose: 50.0 mg/kg/injection, schedule: Q04DX002 (ip), vehicle: Klucel (hydroxypropylcellulose) (HPC)); 93 % of control under setting [1]; 90 % of control (dose: 100.0 mg/kg/injection, schedule: Q04DX002 (ip), vehicle: Klucel (hydroxypropylcellulose) (HPC)); 111 % of control under setting [2]; 101 % of control (dose: 200.0 mg/kg/injection, schedule: Q04DX002 (ip), vehicle: Klucel (hydroxypropylcellulose) (HPC)); 87 % of control (dose: 400.0 mg/kg/injection, schedule: Q04DX002 (ip), vehicle: Klucel (hydroxypropylcellulose) (HPC)).
In the case of `CC1(C)OC2COC(c3[nH]nc4c(=O)[nH]c(=O)[nH]c34)C2O1` (stereo not drawn), the T/C is 96 % of control (dose: 25.0 mg/kg/injection, schedule: Q01DX009 (ip), vehicle: saline); 101 % of control (dose: 100.0 mg/kg/injection, schedule: Q01DX005 (ip), vehicle: saline); 188 % of control under setting [4].
